Measurements reported in PMC6631349 (Xenobiotica; the fate of foreign compounds in biological …, 2014).
Read-outs that look alike come from different tables or passages of the source.

Experiments:
[1] = molecular target: T1, UGT1A3 (Homo sapiens, UniProt P35503); experiment: UGT1A3 supersomes-catalyzed 4-MU glucuronidation inhibition; conditions: recombinant human UGT, mean of triplicate
T1 sequence (P35503 29-534): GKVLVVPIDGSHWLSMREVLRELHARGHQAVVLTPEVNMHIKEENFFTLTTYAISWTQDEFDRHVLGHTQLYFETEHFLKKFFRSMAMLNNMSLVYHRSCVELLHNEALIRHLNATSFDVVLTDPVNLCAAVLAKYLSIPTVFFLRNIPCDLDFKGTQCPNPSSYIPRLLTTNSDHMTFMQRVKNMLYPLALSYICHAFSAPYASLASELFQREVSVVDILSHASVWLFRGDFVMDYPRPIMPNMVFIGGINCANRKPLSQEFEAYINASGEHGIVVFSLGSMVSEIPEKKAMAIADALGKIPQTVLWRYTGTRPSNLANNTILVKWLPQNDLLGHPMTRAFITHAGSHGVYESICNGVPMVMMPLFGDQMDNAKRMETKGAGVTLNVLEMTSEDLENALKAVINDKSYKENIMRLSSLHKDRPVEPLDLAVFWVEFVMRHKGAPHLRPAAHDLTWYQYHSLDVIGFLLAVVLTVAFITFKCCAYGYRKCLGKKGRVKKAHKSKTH

[2] = molecular target: T2, UGT2B4 (Homo sapiens, UniProt P06133); experiment: UGT2B4 supersomes-catalyzed 4-MU glucuronidation inhibition; conditions: recombinant human UGT, mean of triplicate
T2 sequence (P06133 24-528): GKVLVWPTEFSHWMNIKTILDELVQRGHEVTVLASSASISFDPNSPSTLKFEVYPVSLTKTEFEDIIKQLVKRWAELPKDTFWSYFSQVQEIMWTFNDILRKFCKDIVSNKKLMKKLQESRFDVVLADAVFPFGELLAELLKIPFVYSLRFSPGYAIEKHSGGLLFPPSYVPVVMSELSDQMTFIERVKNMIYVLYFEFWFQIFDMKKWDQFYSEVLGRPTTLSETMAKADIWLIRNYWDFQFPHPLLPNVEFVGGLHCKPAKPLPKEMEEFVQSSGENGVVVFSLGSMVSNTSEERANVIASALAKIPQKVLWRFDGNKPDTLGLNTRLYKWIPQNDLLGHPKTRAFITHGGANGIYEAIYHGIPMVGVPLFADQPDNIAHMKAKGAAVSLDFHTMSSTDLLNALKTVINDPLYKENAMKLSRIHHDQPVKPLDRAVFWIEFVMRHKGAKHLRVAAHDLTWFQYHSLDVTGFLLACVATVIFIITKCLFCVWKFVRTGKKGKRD

[3] = molecular target: T3, UGT2B7 (Homo sapiens, UniProt P16662); experiment: UGT2B7 supersomes-catalyzed 4-MU glucuronidation inhibition; conditions: for residual activity 2B7: recombinant human UGT, mean of triplicate
T3 sequence (P16662 24-529): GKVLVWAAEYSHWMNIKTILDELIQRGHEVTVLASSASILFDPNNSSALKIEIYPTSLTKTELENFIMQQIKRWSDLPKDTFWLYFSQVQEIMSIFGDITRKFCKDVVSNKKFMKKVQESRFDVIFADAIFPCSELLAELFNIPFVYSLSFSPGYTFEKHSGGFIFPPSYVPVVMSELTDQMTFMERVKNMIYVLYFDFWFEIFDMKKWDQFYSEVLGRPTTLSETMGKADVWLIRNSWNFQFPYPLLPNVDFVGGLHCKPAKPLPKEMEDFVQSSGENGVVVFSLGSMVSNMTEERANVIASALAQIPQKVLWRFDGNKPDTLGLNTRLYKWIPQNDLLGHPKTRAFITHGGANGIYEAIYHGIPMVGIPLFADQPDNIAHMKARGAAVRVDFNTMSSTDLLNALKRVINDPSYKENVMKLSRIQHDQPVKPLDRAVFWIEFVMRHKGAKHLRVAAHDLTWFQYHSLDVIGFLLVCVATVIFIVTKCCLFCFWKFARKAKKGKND

[4] = molecular target: T4, UGT1A6 (Homo sapiens, UniProt P19224); conditions: for residual activity 1A6: recombinant human UGT, mean of triplicate
T4 sequence (P19224 27-532): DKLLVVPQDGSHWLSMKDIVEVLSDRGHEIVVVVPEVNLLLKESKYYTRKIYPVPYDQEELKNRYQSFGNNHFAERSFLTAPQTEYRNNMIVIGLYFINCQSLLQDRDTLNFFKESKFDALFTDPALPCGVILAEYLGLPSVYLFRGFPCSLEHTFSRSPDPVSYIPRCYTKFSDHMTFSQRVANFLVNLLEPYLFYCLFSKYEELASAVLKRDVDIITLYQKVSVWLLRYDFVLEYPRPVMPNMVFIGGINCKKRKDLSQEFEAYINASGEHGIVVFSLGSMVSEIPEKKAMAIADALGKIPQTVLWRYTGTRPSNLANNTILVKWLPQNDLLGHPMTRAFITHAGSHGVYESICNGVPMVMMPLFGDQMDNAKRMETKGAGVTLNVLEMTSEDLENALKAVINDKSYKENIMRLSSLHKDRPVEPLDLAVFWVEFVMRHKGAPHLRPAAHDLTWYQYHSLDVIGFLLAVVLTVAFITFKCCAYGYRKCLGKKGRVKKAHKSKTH

[5] = molecular target: T5, UGT1A8 (Homo sapiens, UniProt Q9HAW9); conditions: for residual activity 1A8: recombinant human UGT, mean of triplicate
T5 sequence (Q9HAW9 26-530): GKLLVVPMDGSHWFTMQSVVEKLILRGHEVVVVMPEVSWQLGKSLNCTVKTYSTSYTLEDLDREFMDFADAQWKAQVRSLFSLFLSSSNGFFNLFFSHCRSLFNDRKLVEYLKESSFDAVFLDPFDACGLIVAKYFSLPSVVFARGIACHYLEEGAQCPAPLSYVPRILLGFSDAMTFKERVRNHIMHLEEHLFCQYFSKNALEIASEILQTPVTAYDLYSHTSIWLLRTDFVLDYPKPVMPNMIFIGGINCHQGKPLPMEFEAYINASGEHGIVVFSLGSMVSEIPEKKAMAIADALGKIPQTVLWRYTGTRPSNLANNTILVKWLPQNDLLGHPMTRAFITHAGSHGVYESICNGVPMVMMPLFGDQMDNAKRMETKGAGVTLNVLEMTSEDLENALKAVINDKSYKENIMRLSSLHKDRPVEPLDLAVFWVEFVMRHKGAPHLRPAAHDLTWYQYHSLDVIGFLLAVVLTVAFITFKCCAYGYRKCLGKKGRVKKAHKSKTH

[6] = Dixon and Lineweaver-Burk plots, 4-MU glucuronidation

residual activity 1A3 ([1]; 50 μM PC components) | residual activity 2B4 ([2]; 50 μM PC components) | residual activity 2B7 ([3]; 50 μM PC components) | residual activity 1A6 ([4]; 50 μM PC components) | residual activity 1A8 ([5]; 50 μM PC components) | inhibition percentage of UGT2B7 activity ([3]; 50 μM) | inhibition percentage of UGT1A6 activity ([4]; 50 μM) | SMILES | residual activity 1A3 ([1]; 50 μM LPC components) | residual activity 2B4 ([2]; 50 μM LPC components) | residual activity 2B7 ([3]; 50 μM LPC components) | residual activity 1A6 ([4]; 50 μM LPC components) | residual activity 1A8 ([5]; 50 μM LPC components) | inhibition kinetic type towards UGT1A6 [4, 6] | inhibition kinetic type towards UGT1A8 [5, 6]
– | – | – | – | – | – | – | CCCCCCCCCCCC(=O)OC[C@@H](O)COP(=O)([O-])OCC[N+](C)(C)C [LPC 12:0] | 74.8% | 255.5% | 72.8% | 80.2% | 89.2% | – | –
110.7% | 181.0% | 100.5% | 35.0% | 116.8% | – | – | CCCCCCCCCCC(=O)OC[C@H](COP(=O)([O-])OCC[N+](C)(C)C)OC(=O)CCCCCCCCCC [PC 11:0, 11:0] | – | – | – | – | – | – | –
90.8% | 79.5% | 88.9% | 88.2% | 94.9% | – | – | CCCCCCCCCCCCCCCCCCCC(=O)OC[C@H](COP(=O)([O-])OCC[N+](C)(C)C)OC(=O)CCCCCCCCCCCCCCCCCCC [PC 20:0, 20:0] | – | – | – | – | – | – | –
97.3% | 179.0% | 66.1% | 54.3% | 110.2% | – | – | CCCCCCCCCCCCCC(=O)OC[C@H](COP(=O)([O-])OCC[N+](C)(C)C)OC(=O)CCCCCCCCCCCCC [PC 14:0, 14:0] | – | – | – | – | – | – | –
75.9% | 83.4% | 23.1% | 49.1% | 60.6% | 76.9% | – | CCCCCCCCCCCCCCCCCCC(=O)OC[C@H](COP(=O)([O-])OCC[N+](C)(C)C)OC(=O)CCCCCCCCCCCCCCCCCC [PC 19:0, 19:0] | – | – | – | – | – | – | –
88.2% | 80.3% | 26.2% | 85.4% | 36.9% | – | – | CCCCCCCCCCCCCCCCCCCCC(=O)OC[C@H](COP(=O)([O-])OCC[N+](C)(C)C)OC(=O)CCCCCCCCCCCCCCCCCCCC [PC 21:0, 21:0] | – | – | – | – | – | – | –
92.1% | 60.0% | 33.0% | 60.2% | 38.0% | – | – | CCCCCCCCCCCCCCCCCCCCCC(=O)OC[C@H](COP(=O)([O-])OCC[N+](C)(C)C)OC(=O)CCCCCCCCCCCCCCCCCCCCC [PC 22:0, 22:0] | – | – | – | – | – | – | –
– | – | – | – | – | – | – | CCCCCCCCCCCCCCCCCC(=O)OC[C@@H](O)COP(=O)([O-])OCC[N+](C)(C)C [LPC 18:0] | 72.4% | 280.4% | 39.3% | 4.3% | 1.2% | non-competitively inhibited | competitive inhibition
117.7% | 156.7% | 79.6% | 21.4% | 33.2% | – | 78.6% | CCCCCCCCC(=O)OC[C@H](COP(=O)([O-])OCC[N+](C)(C)C)OC(=O)CCCCCCCC [PC 9:0, 9:0] | – | – | – | – | – | – | –
– | – | – | – | – | – | – | CCCCCCCCCCCCCC(=O)OC[C@@H](O)COP(=O)([O-])OCC[N+](C)(C)C [LPC 14:0] | 74.2% | 217.1% | 90.5% | 33.3% | 19.2% | – | –
103.4% | 191.3% | 51.7% | 55.0% | 105.9% | – | – | CCCCCCCCCCCCCCC(=O)OC[C@H](COP(=O)([O-])OCC[N+](C)(C)C)OC(=O)CCCCCCCCCCCCCC [PC 15:0, 15:0] | – | – | – | – | – | – | –
– | – | – | – | – | – | – | CCCCCCCCC(=O)OC[C@@H](O)COP(=O)([O-])OCC[N+](C)(C)C [LPC 9:0] | 79.6% | 179.1% | 76.2% | 67.2% | 101.2% | – | –

SMILES | residual activity 1A3 ([1]; 50 μM PC components) | residual activity 2B4 ([2]; 50 μM PC components) | residual activity 2B7 ([3]; 50 μM PC components) | residual activity 1A6 ([4]; 50 μM PC components) | residual activity 1A8 ([5]; 50 μM PC components) | inhibition percentage of UGT2B7 activity ([3]; 50 μM) | inhibition percentage of UGT1A6 activity ([4]; 50 μM) | residual activity 1A3 ([1]; 50 μM LPC components) | residual activity 2B4 ([2]; 50 μM LPC components) | residual activity 2B7 ([3]; 50 μM LPC components) | residual activity 1A6 ([4]; 50 μM LPC components) | residual activity 1A8 ([5]; 50 μM LPC components) | inhibition kinetic type towards UGT1A6 [4, 6] | inhibition kinetic type towards UGT1A8 [5, 6]
CCCCCC(=O)OC[C@H](COP(=O)([O-])OCC[N+](C)(C)C)OC(=O)CCCCC [PC 6:0, 6:0] | 105.1% | 178.7% | 70.2% | 67.3% | 116.2% | – | – | – | – | – | – | – | – | –
